We go through six molecules from patent US11730826B2, “Amphiphilic nanoparticles for delivery of CRISPR based therapy” (Massachusetts Institute of Technology, priority 2016, dated 2023).

One test deals with SMAD4 sgRNA. In words: Activity of sgRNA after incubation with small molecule anticancer agents (WB in Cas9-expressing SKOV3 cells). In kind it is cell-based, human. As to conditions: for suppression of SMAD4 protein by sgRNA after coincubation: 12 h of coincubation, effective = levels <30% of baseline; for effect of co-incubation on SMAD4 sgRNA suppression: up to 24 h prior to transfection. Here is the method:
Activity of sgRNA after incubation with various small molecule anticancer agents: To determine the effects of platination or alkylation of sgRNA on silencing efficiency, SMAD4 sgRNA was first pre-incubated with various small molecules including Pt(II), Pt(IV)-COOH, doxorubicin, gemcitabine, camptothecin, or melphalan for either 12 h or 24 h, at 37° C., and at a drug to sgRNA molar ratio of 10:1 in RNase free water. The sgRNA was then purified by […] (Mw=3 kDa) and quantified by Nanodrop. The RNAi-MAX (Invitrogen, Thermo-fisher, USA) was utilized to transfect the reacted sgRNA (10 nM) into Cas9-expressing SKOV3 cells in 6-well plates. After 72 h, protein was recovered from cell lysates and analyzed by WB to quantify SMAD4 and GAPDH (product of a house-keeping gene; control) levels with respect to those of untreated cells. In addition, to compare the effects of Pt(II) and Pt(IV)-COOH interference with sgRNA-mediated recognition and target gene silencing by Cas9, various incubation periods were examined (i.e. 3, 6, and 9 h).

Test [1] has as its system s-SMAD4. In words: Reactions of sgRNA with anticancer agents by MALDI/TOF MS. As to conditions: for time at which RNA adducts were formed: excess agent; for adducts in the RNA macromolecule: 24 h of incubation. As for the experimental part:
Determination of the reactions of sgRNA with anticancer agents by MALDI/TOF MS: A 20-mer of RNA comprising the seed region of SMAD4 sgRNA (s-SMAD4) was mixed with Pt(II), Pt(IV)-COOH, doxorubicin, gemcitabine, camptothecin or melphalan at a molar ratio of 1:10 in RNase free water (RNA final concentration (10 μM); small molecule (100 μM)). The reaction mixture was shaken in a 37° C. incubator for a prescribed time interval (30 min, 1 h, 3 h, 6 h, 9 h, 12 h, or 24 h); and, 10 μL of each solution was analyzed by MALDI/TOF MS (positive mode), employing hydroxipicolinic acid as the matrix.

The next test has as its system 5′-GMP. In words: 5′-GMP binding with platinum species by 1HNMR.
Test [2] deals with BCL-2 siRNA. In words: siRNA binding with platinum species by MALDI-TOF-MS. As to conditions: 10-fold excess of platinum species. As for the experimental part: A single-stranded siRNA (UCAGGUACUCAGUCAUCCACATT) was mixed with OxaPt(II) at a molar ratio of 1:10 in RNAase free water (RNA final concentration: 50 μM; Pt final concentration: 500 μM; total volume: 100 μL). The reaction mixture was placed in a 37° C. incubator and 10 μL of sample were removed at various time points to obtain MALDI-TOF-MS spectra (positive model). Analogous methods were employed to obtain spectra of the reaction products of siRNA with OxaPt(IV), CisPt(II) and CisPt(IV).

In test [3] the test system is s-SMAD4. The test is described as follows: Kinetics of Pt-RNA adduct formation by AAS.
Test [4] concerns s-SMAD4. In words: PicoGreen based melting temperature assay of s-SMAD4/ss-DNA heterodimer. As for the experimental part:
The Tm of the unreacted 20-mer and the ss-DNA (41° C.) resembled the calculated Tm of the heterodimer of the native SMAD4 sgRNA with DNA (43° C.).

A further test concerns Cytoplasmic RNA. As to conditions: upon intracellular uptake; cited from earlier work.
The test system of test [5] is BCL-2 siRNA. In words: Silencing activity of BCL-2 siRNA preincubated with platinum species (qRT-PCR). In kind it is cell-based. As to conditions: MCF-7 cells, RT-qPCR 48 h after transfection, pre-incubation 1 vs. 12 h. As for the experimental part:
48 hours after transfection, total RNA was isolated using an RNeasy mini-kit (Qiagen, Germantown, Md.) and quantified by NanoDrop. 300 ng of mRNA were subsequently subjected to qRT-PCR analysis, targeting BCL-2 and glyceraldehyde 3-phosphate dehydrogenase (GAPDH) by using the SYBR Premix Ex (Takara, USA) and by using an Applied Biosystems StepOne Real-Time PCR System. Relative gene expression values were determined by the […] using StepOne Software v2.1 (Applied Biosystems). Data are presented as fold differences in […] normalized to GAPDH (house-keeping gene used as endogenous reference), employing a standard curve, and are reported relative to untreated (control) cells. The sequence of the primers used for BCL-2 and GAPDH are as follows: BCL-2 forward—5-[…]-3; Bcl-2 reverse—5-[…]-3; GAPDH forward—5-[…]-3; and GAPDH reverse primer—5-[…]-3 (Integrated DNA Technology. IW, USA). The specificity of each set of primers was verified by melting curve analysis.
A general note: In qPCR the cycle at which signal appears reflects the starting amount.

Description for 5′-GMP: The binding kinetics of 5′-GMP to each platinum species were determined by measuring the relative amounts of free and Pt-bound 5′-GMP at each time point, integrating the ratio of the ^1HNMR peaks at 8.5 ppm to 8.09 ppm.

With `N[C@@H](Cc1ccc(N(CCCl)CCCl)cc1)C(=O)O` [melphalan], in the test on SMAD4 sgRNA, the “incubation time beyond which sgRNA was unable to prevent protein expression” value is listed as more than 6 h and the “suppression of SMAD4 protein by sgRNA after coincubation” value is on record as “unable to effectively suppress expression of SMAD4 protein”. The “time at which RNA adducts were formed” value with s-SMAD4 [1] is listed as 1 h.
Regarding `N.N.[Cl][Pt][Cl]` [CisPt(II), cisplatin], in the test with 5′-GMP (data not shown), the “formation of Pt(NH3)2(5′-GMP)2 adducts” value is “rapid formation and time dependent increases”. The “earliest time Pt-siRNA adducts detected” value with BCL-2 siRNA [2] is given as not above 30 m. In addition, in the test with SMAD4 sgRNA, the “incubation time beyond which sgRNA was unable to prevent protein expression” value was more than 3 h and the “suppression of SMAD4 protein by sgRNA after coincubation” value was “unable to effectively suppress expression of SMAD4 protein”. For the same molecule, the “time at which RNA adducts were formed” value in the test with s-SMAD4 [1] (aqueous solution, 37° C.) turned out to be 0.5 h. In the test on s-SMAD4 [3], the “Pt atoms bound per RNA macromolecule” value was “up to 6”. In the test with s-SMAD4 [3] (incubated for 1 h with >10 μM), the RNA platinated is listed as more than 50%. Further, the “apparent second-order rate constant” value in the test with s-SMAD4 [3] (pseudo-first order kinetics) is more than 1e+07 M⁻¹ s⁻¹. Besides, the “heterodimerization of pretreated s-SMAD4 with ss-DNA” value with s-SMAD4 [4] is “could not heterodimerize with ss-DNA at any temperature”. Further, in the test with Cytoplasmic RNA, the “concentrations of Pt-RNA adducts relative to Pt-DNA adducts” value is 5-6 times.
Regarding `CC[C@@]1(O)C(=O)OCc2c1cc1n(c2=O)Cc2cc3ccccc3nc2-1` [camptothecin], in the test with SMAD4 sgRNA, the “effect of co-incubation on SMAD4 sgRNA suppression” value (“effect of co-incubation” below) is given as “did not alter the ability of SMAD4 sgRNA to effectively suppress expression levels”. Further, the “adducts in the RNA macromolecule” value in the test on s-SMAD4 [1] was “no adducts were detected”.
In the case of `O=C1[O][Pt]2([NH][C@@H]3CCCC[C@H]3[NH]2)[O]C1=O` [OxaPt(II), Oxaliplatin], the “DACHPt(5′-GMP)2 adducts as share of the total 5′-GMP pool” value in the test on 5′-GMP (over the first 6 h, 10 mM 5′-GMP, 5 mM Pt, 37° C.) is reported as more than 40%. In addition, in the test on BCL-2 siRNA [2], the “earliest time Pt-siRNA adducts detected” value is listed as 1 h. For the same molecule, the “effect of incubation with siRNA on silencing efficiency” value in the test with BCL-2 siRNA [5] is “concentration and time-dependent decrease in silencing efficiency”.
For the molecule `COc1cccc2c1C(=O)c1c(O)c3c(c(O)c1C2=O)C[C@@](O)(C(=O)CO)C[C@@H]3O[C@H]1C[C@H](N)[C@H](O)[C@H](C)O1` [doxorubicin], in the test with SMAD4 sgRNA, the “effect of co-incubation” value is given as “did not alter the ability of SMAD4 sgRNA to effectively suppress expression levels”. Moreover, the “adducts in the RNA macromolecule” value in the test on s-SMAD4 [1] is reported as “physical association multimers in non-covalent complexes with RNA”.
`Nc1ccn([C@@H]2O[C@H](CO)[C@@H](O)C2(F)F)c(=O)n1` [gemcitabine]: the “effect of co-incubation” value with SMAD4 sgRNA was “did not alter the ability of SMAD4 sgRNA to effectively suppress expression levels”. Further, the “adducts in the RNA macromolecule” value in the test on s-SMAD4 [1] was “no adducts were detected”.
